Earlier results on 1 molecule are cited in US20070093966A1, “Drug candidate selection by hydrogen exchange characterization of ligand-induced receptor conformation” (ExSAR CORPORATION, priority 2004, published 2007).

The data set deals with endogenous gene CAP in 3T3-L1 adipocytes. The conditions noted are these: Camp et al.

As to `Cc1c(C)c2c(c(C)c1O)CCC(C)(COc1ccc(CC3SC(=O)NC3=O)cc1)O2` (stereo not shown) [troglitazone], the “agonist profile, induction of the endogenous gene CAP” value was “full agonist”.
